Common to all, as to type: functional, cell-based
In one experiment the test system is A549. In words: Antiproliferative activity against human A549 cells assessed as inhibition of cell growth incubated for 72 hrs by SRB assay. The conditions noted are these: A549, 72 h.
The next experiment relates to KB. In words: Antiproliferative activity against human KB cells assessed as inhibition of cell growth incubated for 72 hrs by SRB assay. (In SRB staining, fixed cells bind dye roughly in proportion to their protein.)
Experiment [1] is described as follows: Antiproliferative activity against human KB-VIN cells overexpressing p-gp assessed as inhibition of cell growth incubated for 72 hrs by SRB assay. Particulars: KBVIN.
In the next experiment the test system is MCF7. In words: Antiproliferative activity against HER2-negative human MCF7 cells assessed as inhibition of cell growth incubated for 72 hrs by SRB assay. Particulars: MCF7, 72 h.
In a further experiment the test system is MDA-MB-231. In words: Antiproliferative activity against triple negative human MDA-MB-231 cells assessed as inhibition of cell growth incubated for 72 hrs by SRB assay. The conditions noted are these: MDA-MB-231, 72 h.

Where only a bound is given, the exact number is not on record here.

In general, IC50 refers to the point on the concentration scale where inhibition reaches its midpoint. For the compound `C=CC(C)(C)c1c2c(c(O)c3c1O[C@]14[C@H](C3=O)[C@@H](OC)[C@H]3C[C@H]1C(C)(C)O[C@@]4(C/C=C(\C)C(=O)O)C3=O)C=CC(C)(C)O2`, the IC50 with A549 was more than 10 µM; with KB, 6.1 µM; in experiment [1], more than 10 µM; in the experiment on MCF7, 10.4 µM; in the experiment with MDA-MB-231, more than 10 µM.

Consider `C=CC(C)(C)c1c2c(c(O)c3c1O[C@]14C(=C[C@@H]5C[C@H]1C(C)(C)O[C@@]4(C/C=C(\C)C(=O)O)C5=O)C3=O)C=CC(C)(C)O2`, for which the IC50 turned out to be 0.8 µM in the experiment with A549; 0.6 µM in the experiment with KB; 0.6 µM in experiment [1]; 1.3 µM in the experiment with MCF7; 0.5 µM with MDA-MB-231.

Take `C=CC(C)(C)c1c2c(c(O)c3c1OC(C)(C)[C@H]1CCC(C)=C[C@@H]31)C(=O)C1=C[C@@H]3C[C@H]4C(C)(C)O[C@@](C/C=C(\C)C(=O)O)(C3=O)[C@@]14O2`: the IC50 was 2.9 µM with A549; 1.2 µM in the experiment with KB; 5.2 µM in experiment [1]; 5.6 µM in the experiment with MCF7; 4.6 µM in the experiment with MDA-MB-231.

As to `C=CC(C)(C)c1c2c(c(O)c3c1OC(C)(C)[C@H]1CCC(C)=C[C@@H]31)C(=O)[C@@H]1[C@@H](OC)[C@@H]3C[C@H]4C(C)(C)O[C@@](C/C=C(\C)C(=O)O)(C3=O)[C@@]14O2`, the IC50 in the experiment with A549 stood at 5.6 µM; in the experiment with KB, 5.2 µM; in experiment [1], 5.2 µM; in the experiment on MCF7, 6.4 µM; with MDA-MB-231, 5.7 µM.

Turning to `C=CC(C)(C)c1c2c(c(O)c3c1OC(C)(C)[C@H]1CCC(C)=C[C@@H]31)C(=O)[C@@H]1[C@@H](O)[C@@H]3C[C@H]4C(C)(C)O[C@@](C/C=C(\C)C(=O)O)(C3=O)[C@@]14O2`, the IC50 was 6.1 µM in the experiment on A549; 5.3 µM with KB; 5.7 µM in experiment [1]; 6.7 µM with MCF7; 6.4 µM with MDA-MB-231.

Take `COc1cc(-c2ccc(O)c(C/C=C(/C)CO)c2)cc(O)c1O`: the IC50 (in the experiment with A549; with KB; in experiment [1]; with MCF7; with MDA-MB-231) was more than 10 µM throughout.

As for `COc1cc(-c2ccc(O)c(CCC(C)CO)c2)cc(O)c1O` (stereo not drawn), the IC50 (in the experiment on A549; in the experiment with KB; in experiment [1]; with MCF7; with MDA-MB-231) was more than 10 µM throughout.

For `COc1c(O)c(O)cc(-c2ccccc2)c1CC=C(C)C`, the IC50 (in the experiment with A549; in the experiment with KB; in experiment [1]; in the experiment with MCF7; in the experiment on MDA-MB-231) was more than 10 µM each time.

Take `COc1cc(-c2ccc3c(c2)C=CC(C)(C)O3)cc(O)c1O`: the IC50 (with A549; in the experiment with KB; in experiment [1]; in the experiment with MCF7; in the experiment with MDA-MB-231) was more than 10 µM each time.

For the compound `C=CC(C)(C)c1c2c(c(O)c3c1OC(C)(C)[C@H]1CCC(C)=C[C@@H]31)C(=O)C1=C[C@@H]3C[C@H]4C(C)(C)O[C@@](C/C=C(/C)C(=O)O)(C3=O)[C@@]14O2`, the IC50 worked out at 3 µM in the experiment with A549; 1.8 µM in the experiment on KB; 4 µM in experiment [1]; 3.2 µM in the experiment with MCF7; 2.9 µM in the experiment on MDA-MB-231.

`CC(=O)O[C@H]1C(=O)[C@@]2(C)[C@H]([C@H](OC(=O)c3ccccc3)[C@]3(O)C[C@H](OC(=O)[C@H](O)[C@@H](NC(=O)c4ccccc4)c4ccccc4)C(C)=C1C3(C)C)[C@]1(OC(C)=O)CO[C@@H]1C[C@@H]2O` [PACLITAXEL]: the figures for the concentration for half-maximal inhibition (IC50) (in the experiment on KB; in experiment [1]; in the experiment on MDA-MB-231) were less than 0.0001 µM, 2.2 µM and 0.0009 µM, respectively.

For the origin of these results see ChEMBL document CHEMBL5357030, “Caged Xanthones and Biphenyls Isolated from the Tropical Plant Garcinia lateriflora” (J Nat Prod, 2024).
